A short description of this data set: Solubility in water. It counts as physicochemical. Conditions: at room temperature, read-out: Löslichkeit in Wasser.

SMILES strings stand for the structures. Converted amounts (≈) assume the structure as drawn.

On to `O=C(O)C(Nc1nc(NC(C(=O)O)n2cncn2)nc(NC(C(=O)O)n2cncn2)n1)n1cncn1` (stereo not shown) [Beispiel 25], for which the solubility turned out to be 50 mg/mL (≈ 99.7 mM).

The values above are taken from patent EP0682022B1, “Condensation products of melamine, benzotriazoles and aldehydes” (Ciba Specialty Chemicals Holding Inc., priority 1994, dated 1995).
